{
  "source": "patent US9012481B2",
  "about": "“Benzoarylureido compounds, and composition for prevention or treatment of neurodegenerative brain disease containing the same” (Korea Institute of Science and Technology, priority 2009, dated 2015)",
  "key": {"phospho-ERK1": {"system": "phospho-ERK1", "assay": "Immunoblotting of phospho-ERK1 in beta-amyloid stimulated BV-2 cell culture", "format": "cell-based", "procedure": "(§1) The beta-amyloid treated cells (6-well of 5×10^5 cells/3 Ml, allotted from Pharmacology Division of Ajou University) were collected, and washed with phosphate-buffered saline (PBS). After centrifugation, the cells were dissolved in 0.1 ml of RIPA buffer (containing 150 mM NaCl, 1% NP-40, 0.5% sodium deoxycholate, 0.1% SDS, 50 mM Tris-HCl, pH 7.4, 50 mM glyycerophosphate, 20 mM NaF, 20 mM EGTA, 1 mM DTT, 1 mM Na3VO4, and protease inhibitor) at 4° C. for 15 minutes by strong shaking. The cells were cultivated in ice for 10 minutes, the lysate was centrifuged at 14,000 rpm for 5 minutes. 20 μg of a protein obtained from the cell lysate was heated, and then, electrophoresed on 12% polyacrylamide gel under reduction condition. The cells were incubated in blocking buffer (20 mM Tris, pH 7.4-buffer saline containing 0.1% tween 20 containing 5% lipid-free dried milk) for 1 hour, to suppress non-specific binding. […]\n(§2) To examine the effect of compound KHG25967 on phosphorylation of ERK (extracellular signal-regulated kinase) and expression of caspase 3 by beta-amyloid, a possible protein expression of ERK1/2 (extracellular signal-regulated kinase 1 & 2) and caspase 3 in BV-2cell culture stimulated with beta-amyloid were measured. […]"}, "caspase 3": {"system": "caspase 3", "assay": "Immunoblotting of cleaved caspase 3 in beta-amyloid stimulated BV-2 cell culture", "format": "cell-based", "conditions": "beta-amyloid together with KHG25967 (50 nM) compared to beta-amyloid only", "procedure": "as §1, with “condition.” for “condition. The cells were incubated in blocking buffer (20 mM Tris, pH 7.4-buffer saline containing 0.1% tween 20 containing 5% lipid-free dried milk) for 1 hour, to suppress non-specific binding.”\nTo examine the effect of compound KHG25967 on phosphorylation of ERK (extracellular signal-regulated kinase) and expression of caspase 3 by beta-amyloid, a possible protein expression of ERK1/2 (extracellular signal-regulated kinase 1 & 2) and caspase 3 in BV-2cell culture stimulated with beta-amyloid were measured.\nThe activity of caspase 3 was measured as a cleavage at aspartic acid and serine by a stimulation, which is measured using anti-cleavage-caspase 3 antibody (Cell Signaling Technology Inc, Beverly, Mass., USA) through immunoblotting analysis. […]"}, "interleukin-1beta [1]": {"system": "interleukin-1beta", "assay": "ELISA of interleukin-1beta in LPS-treated BV-2 cells", "format": "cell-based", "conditions": "LPS 1 μg/ml for 2 hours, then 50 nM KHG25967 for 6 hours; compared to LPS only as 100%", "procedure": "Lipopolysaccharide (LPS)-treated cells (6-well of 5×10^5 cells/3 Ml, Fluka, Sigma-Aldrich, St. Louis, Mo., USA) were collected, and washed with phosphate-buffered saline (PBS). The cells were centrifuged, and then dissolved in pro-prep lysis buffer at 4° C. Interleukin-1 beta and tumor necrosis factor-alpha in the cell lysis solution wherein the cells were dissolved were measured by enzyme-linked immunosorbent analysis plate (R&D systems inc, Minneapolis, Minn., USA). The absorbance at 450 nm was measured using microplate reader. In addition, cytokine was measured using a cytokine measuring system (R&D systems inc, Minneapolis, Minn., USA).\nBV-2 cells were pre-treated with 1 μg/ml of LPS (Fluka, Sigma-Aldrich, St. Louis, Mo., USA) for 2 hours, and then, further treated with 50 nM KHG25967 for 6 hours. The changed amounts of cytokines of tumor necrosis factor-alpha and interleukin-1beta were measured from lysate solution where the cells were dissolved in cell lysate solution (Intron Biotechnology, Seoul, Korea)."}, "phospho-ERK2": {"system": "phospho-ERK2", "assay": "Immunoblotting of phospho-ERK2 in beta-amyloid stimulated BV-2 cell culture", "format": "cell-based", "conditions": "beta-amyloid together with KHG25967 (50 nM) compared to beta-amyloid only", "procedure": "as §1, §2"}, "BV-2 cells": {"system": "BV-2 cells", "assay": "Microscope analysis of cell shape, beta-amyloid treated BV-2 cells", "format": "cell-based", "conditions": "50 nM KHG25967 for 24 hours after 50 μM beta-amyloid for 2 hours", "procedure": "BV-2 microglia cells (allotted from Pharmacology Division of Ajou University) were cultivated in DMEM (Dulbecco's Modified Eagle's Medium) supplemented with 5% fetal bovine serum (Invitrogen, Carlsbad, Calif., USA), sou/Ml penicillin (Invitrogen, Carlsbad, Calif., USA), and 50 μg/Ml streptomycin (Invitrogen, Carlsbad, Calif., USA) under the atmosphere condition with 5% CO2 and 95% air at 37° C. The medium was replaced once a day, the cells were plate-cultured in a density according to the scale of each experiment.\nBV-2 cells were pre-treated with 50 μM of beta-amyloid, and 50 nM of KHG25967 compound was added to the beta-amyloid treated cells for 24 hours. For microscope analysis, BV-2 cells were used in 6-well plate at the density of 5×10^5 cells/well, for MTT analysis, BV-2 cells were used in 96-well plate at the density of 5×10^4 cells/well.\nThe obtained prevention effects of KHG25967 compound on toxicity induced by beta-amyloid in BV-2 cells were FIGS. 1A and 1b."}, "interleukin-1beta [2]": {"system": "interleukin-1beta", "assay": "LPS-induced interleukin-1beta in brain and serum of C57BL/6 mice", "format": "in vivo", "conditions": "oral KHG25967 10 mg/kg or 20 mg/kg every day for 2 weeks, then LPS 10 mg/kg into brain, 6 hours", "procedure": "(§3) The animal experiment was performed using C57BL/6 mice ([…], 12-14 weeks old, Harlan Sprague Dawley inc, Indianapolis, Ind., USA) by stereotaxis. The intracerebroventricular (ICV) injection was according to the intracerebroventricular injection system described in Craft et al., 2004b. The mice were grown in an accommodation for SPF (specific pathogen free) under 12 hours light/12 hours dark repeat, and supplied with water and feed as recommended by the accommodation for SPF. The study was reviewed and approved by the Institutional Animal Care and Use Committee (IACUC) of Asan Institute for Life Sciences, Asan Medical Center, which abides by the Institute of Laboratory Animal Resources (ILAR) guide.\n(§4) The effect of KHG25967 on the change of pro-inflammatory cytokines was examined in vivo using 12-14 week old C57BL/6 mice. The control group was administered with PBS only for 2 weeks and then, further treated with PBS for 6 hours. The LPS group was administered with PBS only for 2 weeks and then, 10 mg/kg of LPS was administered into brain using streotaxis. The KHG25967 treated group was administered with 10 mg/kg or 20 mg/kg of KHG25967 every day for 2 weeks, and then, 10 mg/kg of LPS was administered into brain using streotaxis. […] The changes in the level of pro-inflammatory cytokines (interleukin-1beta and tumor necrosis factor-alpha) in the separated blood and brain were measured."}, "[3]": {"system": "tumor necrosis factor-alpha", "assay": "LPS-induced tumor necrosis factor-alpha in brain and serum of C57BL/6 mice", "format": "in vivo", "conditions": "oral KHG25967 10 mg/kg or 20 mg/kg every day for 2 weeks, then LPS 10 mg/kg into brain, 6 hours", "procedure": "as §3, §4"}},
  "data": [
    {"compound": "O=C(O)CNC(=O)Nc1nc2ccccc2s1", "note": "[KHG25967, 2-(3-benzo[d]thiazole-2-ylureido)acetic acid]", "values": [
      {"measurement": "reduction of expression level of phospho-ERK1 (FIG. 2B)", "setting": "phospho-ERK1; beta-amyloid together with KHG25967 (50 nM) compared to beta-amyloid only", "value": 90, "unit": "%"},
      {"measurement": "increase of phospho-ERK1/2 (Western blot, FIG. 2A)", "setting": "phospho-ERK1; culture treated with beta-amyloid in the presence of 50 nM KHG25967", "value": "considerably weakened"},
      {"measurement": "reduction of expression level of cleavage-caspase 3 (FIG. 2C)", "setting": "caspase 3", "value": 93, "unit": "%"},
      {"measurement": "suppression of interleukin-1beta level (FIG. 3A)", "setting": "interleukin-1beta [1]", "value": 70, "unit": "%"},
      {"measurement": "reduction of expression level of phospho-ERK2 (FIG. 2B)", "setting": "phospho-ERK2", "value": 70, "unit": "%"},
      {"measurement": "morphological characteristics of damaged cells (FIG. 1A)", "setting": "BV-2 cells", "value": "alleviated"},
      {"measurement": "level of interleukin-1beta in blood (serum, FIG. 4C)", "setting": "interleukin-1beta [2]", "value": "no specific difference"},
      {"measurement": "decrease of interleukin-1beta level in brain (FIG. 4A)", "setting": "interleukin-1beta [2]; compared with LPS only as 100%", "value": 55, "unit": "%"},
      {"measurement": "level of tumor necrosis factor-alpha in blood (serum, FIG. 4D)", "setting": "[3]", "value": "no specific difference"},
      {"measurement": "decrease of tumor necrosis factor-alpha level in brain (FIG. 4B)", "setting": "[3]; compared with LPS only as 100%", "value": 42, "unit": "%"}
    ]}
  ]
}
